ChEMBL document CHEMBL5729588, “Spiro-oxazolones” (2023)

Target: Vasopressin V1a receptor (Homo sapiens, UniProt P37288)
Assay: Pharmacological Assay: The human V1a receptor was cloned by RT-PCR from total human liver RNA. The coding sequence was subcloned in an expression vector after sequencing to confirm the identity of the amplified sequence. […] Cell membranes were prepared from HEK293 cells transiently transfected with the expression vector and grown in 20 liter fermenters with the following protocol. 50 g of cells are re-suspended in 30 ml freshly prepared ice cold Lysis buffer ([…] HEPES. 1 mM EDTA, 10 mM MgCl adjusted to pH=7.4+complete cocktail of protease inhibitor (Roche Diagnostics)). Homogenized with Polytron for 1 min and sonicated on ice for 2×2 minutes at 80% intensity (Vibracell sonicator). The preparation is centrifuged 20 min at 500 g at 4° C., the pellet is discarded and the supernatant centrifuged 1 hour at 43'000 g at 4° C. (19'000 rpm). The pellet is re-suspended in 12.5 ml Lysis buffer+12.5 ml Sucrose 20% and homogenized using a Polytron for 1-2 min. The protein concentration is determined by the Bradford method and aliquots are stored at −80° C. until use. For binding studies 60 mg Yttrium silicate SPA beads (Amersham) are mixed with an aliquot of membrane in binding buffer (50 mM Tris, 120 mM NaCl, 5 mM KCl, 2 mM CaCl, 10 mM MgCl) for 15 minutes with mixing. 50 μl of bead/membrane mixture is then added to each well of a 96 well plate, followed by […] of 4 nM 3H-Vasopressin (American Radiolabeled Chemicals). For total binding measurement 100 μl of binding buffer are added to the respective wells, for non-specific binding 100 μl of 8.4 mM cold vasopressin and for compound testing 100 μl of a serial dilution of each compound in 2% DMSO. The plate is incubated 1 h at room temperature, centrifuged 1 min at 1000 g and counted on a Packard Top-Count. Non-specific binding counts are subtracted from each well and data is normalized to the maximum specific binding set at 100%. To calculate an IC 50 the curve is fitted using a non-linear regression model (XLfit) and the K, is calculated using the Cheng-Prussoff equation.

Vasopressin V1a receptor, sequence (P37288 whole entry): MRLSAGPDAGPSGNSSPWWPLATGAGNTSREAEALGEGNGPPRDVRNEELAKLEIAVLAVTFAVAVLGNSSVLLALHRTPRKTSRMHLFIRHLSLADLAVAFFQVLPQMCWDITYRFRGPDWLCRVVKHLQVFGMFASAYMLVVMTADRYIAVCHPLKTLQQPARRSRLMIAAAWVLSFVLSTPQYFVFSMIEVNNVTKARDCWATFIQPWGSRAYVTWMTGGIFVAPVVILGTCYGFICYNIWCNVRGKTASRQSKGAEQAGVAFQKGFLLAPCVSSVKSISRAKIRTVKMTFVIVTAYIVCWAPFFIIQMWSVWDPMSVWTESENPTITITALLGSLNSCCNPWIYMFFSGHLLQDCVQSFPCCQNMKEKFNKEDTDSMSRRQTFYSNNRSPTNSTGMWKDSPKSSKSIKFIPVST

Row | Ki [nM] | Compound
1 | 3.16 | Cc1cc2c(cn1)C1(CCN(C3=NC(=O)C4(Cc5ccccc5C4)O3)CC1)OC2
2 | 15.8 | Cc1cc2c(cn1)C1(CCN(C3=NC(=O)C4(Cc5ccccc5C4)O3)CC1)OC2=O
3 | 1 | O=C1OC2(CCN(C3=NC(=O)C4(Cc5ccccc5C4)O3)CC2)c2ccccc21
4 | 50.1 | O=C1N=C(N2CCC3(CC2)OCc2ccccc23)OC12CCCc1ccccc12 (centres undefined)
5 | 1 | O=C1N=C(N2CCC3(CC2)OCc2ccccc23)OC12Cc1ccc(Cl)cc1C2 (centres undefined)
6 | 0.794 | O=C1OC2(CCN(C3=NC(=O)C4(Cc5ccccc5C4)O3)CC2)c2cc(O)ccc21
7 | 10 | Cc1cc2c(cn1)COC21CCN(C2=NC(=O)C3(Cc4ccccc4C3)O2)CC1
8 | 12.6 | Cc1cc2c(cn1)C(=O)OC21CCN(C2=NC(=O)C3(Cc4ccccc4C3)O2)CC1
9 | 1 | O=C1N=C(N2CCC3(CC2)OCc2ccccc23)OC12CCc1ccccc1C2 (centres undefined)
